Experimental data reported in patent US5208237A, “7-oxypropylsulfonamido-imidazo[4,5-b]quinolin-2-ones” (Bristol-Meyers Squibb Company, priority 1992, dated 1993).
Converted amounts (≈) assume the structure as drawn. Counter-ions that a name gives are not always drawn. Like-named read-outs stand apart in the source and are kept apart here.

Legend:
[1] = Aqueous solubility; assay type: physicochemical; conditions: water
[2] = test system: human blood platelets; experiment: In vitro inhibition of ADP-induced human platelet aggregation in platelet-rich plasma (aggregometer method of Born); conditions: for IC50: Homo sapiens, Platelet, read-out: IC50 vs ADP in human PRP, human PRP, 3 min preincubation at about 37° C., final ADP 5.86 mM (so in the source)
Experimental: The aggregometer method of Born, G. V. R., J. Physiol., (London), 162, 67-68, (1962) as modified by Mustard, J. F., et al., J. Lab. Clin. Med., 64, 548-599, (1964) was used to assess the in vitro activity of the various compounds as to the inhibition of adenosine diphosphate (ADP) and collagen-induced platelet aggregation. The human volunteer donor's arm is cleansed with 70% ethyl alcohol. A sterile 20 ml syringe and needle are used to withdraw 20 ml of blood. The blood is immediately added to a test tube containing 3.8% sodium citrate to prevent clotting (1 part citrate to 9 parts blood).
Platelet rich plasma (PRP) was separated by centrifugation for 10 minutes at 1000 rpm (140xg) from citrated (3.8%) human blood. All glassware used for preparation of PRP is silicon treated. ADP in final concentration of 0.5 μg/mL or 0.05 mL of a collagen suspension prepared according to the method described by Evans, G., et al., J. Exp. Med., 128, 877-894, (1968) was used to induce aggregation. The various compounds tested were dissolved in dimethylsulfoxide (DMSO) so that 5 μl added to the platelet rich plasma would yield the desired test concentration. Vehicle control trials were done and compared with aggregation induced in platelet rich plasma containing various concentrations of the test compounds. Dose response curves were obtained and Inhibitor Concentration (IC50) values calculated.
The test compounds were incubated at about 37° C. in PRP for about 3 minutes prior to the addition of sufficient ADP to provide a final ADP concentration of 5.86 mM.

[3] = free base (* footnote), read-out: Aqueous Solubility of Free Base
[4] = not marked as free base, read-out: Aqueous Solubility

SMILES | solubility [1, 3] [µg/mL] | IC50 [2] [µg/mL] | solubility [1, 4] [µg/mL] | IC50 vs ADP in human PRP ([2]; human PRP, 3 min preincubation at about 37° C., final ADP 5.86 mM (so in the source), dihydrochloride) [µg/mL]
O=CN1CCN(S(=O)(=O)CCCOc2ccc3nc4[nH]c(=O)[nH]c4cc3c2)CC1 [Compound 7, 3-[[(2,3-Dihydro-2-oxo-1H-imidazo[4,5-b]quinolin-7-yl)oxy]propyl]sulfonyll-1-piperazinecarboxaldehyde] | < 1000 | 5.6 (≈ 13.4 µM) |  | 
O=c1[nH]c2cc3cc(OCCCS(=O)(=O)N4CCNCC4)ccc3nc2[nH]1 [Compound 8, 1-[[3-[(2,3-Dihydro-2-oxo-1H-imidazo[4,5-b]quinolin-7-yl)oxy]propyl]sulfonyl]piperazine] | ~1000 (≈ 2550 µM) | 7.2 (≈ 18.4 µM) |  | 
O=c1[nH]c2cc3cc(OCCCS(=O)(=O)N4CCN(Cc5ccccc5)CC4)ccc3nc2[nH]1 [Compound 9c] | ~1000 (≈ 2080 µM) | 0.059 (≈ 0.123 µM) |  | 
O=c1[nH]c2cc3cc(OCCCS(=O)(=O)N4CCNCC4)ccc3nc2[nH]1 [Compound 10a, 1-[[3-[(2,3-Dihydro-2-oxo-1H-imidazo[4-5-b]quinolin-7-yl)oxy]propyl]sulfonyl]piperazine dihydrochloride] |  |  | > 20000 | 6.4
Cl.Cl.O=c1[nH]c2cc3cc(OCCCS(=O)(=O)N4CCN(Cc5ccccc5)CC4)ccc3nc2[nH]1 [Compound 10c, 1-[[3-[(2,3-Dihydro-2-oxo-1H-imidazo[4,5-b]quinolin-7-yl)oxy]propyl]sulfonyl]-4-(phenylmethyl)piperazine dihydrochloride] |  | 0.039 | > 20000 | 
Cl.Cl.O=c1[nH]c2cc3cc(OCCCS(=O)(=O)N4CCN(Cc5ccc(F)cc5)CC4)ccc3nc2[nH]1 [Compound 10d, 1-[[3-[(2,3-Dihydro-2-oxo-1H-imidazo[4,5-b]quinolin-7-yl)oxy]propyl]sulfonyl]-4-(4-fluorophenylmethyl) piperazine dihydrochloride] |  | 0.16 | > 20000 | 
Cl.Cl.O=c1[nH]c2cc3cc(OCCCS(=O)(=O)N4CCN(Cc5ccc(Cl)cc5)CC4)ccc3nc2[nH]1 [Compound 10e, 1-[[3-[(2,3-Dihydro-2-oxo-1H-imidazo[4,5-b]quinolin-7-yl)oxy]propyl]sulfonyl]-4-(4-chlorophenylmethyl) piperazine dihydrochloride] |  | 0.32 | > 20000 | 
COc1ccc(CN2CCN(S(=O)(=O)CCCOc3ccc4nc5[nH]c(=O)[nH]c5cc4c3)CC2)cc1 [Compound 10f, 1-[[3-[(2,3-Dihydro-2-oxo-1H-imidazo[4,5-b]quinolin-7-yl)oxy]propyl]sulfonyl]-4-[(4-methoxyphenylmethyl)piperazinedihydrochloride] |  | 0.27 | > 20000 | 
Cl.Cl.O=c1[nH]c2cc3cc(OCCCS(=O)(=O)N4CCN(CC5CCCCC5)CC4)ccc3nc2[nH]1 [Compound 10g, 1-[[3-[(2,3-Dihydro-2-oxo-1H-imidazo[4,5-b]quinolin-7-yl)oxy]propyl]sulfonyl]-4-(cyclohexylmethyl) piperazine dihydrochloride] |  | 0.064 | > 20000 | 
Cl.Cl.O=c1[nH]c2cc3cc(OCCCS(=O)(=O)N4CCN(c5nc6ccccc6o5)CC4)ccc3nc2[nH]1 [Compound 10h, 1-(Benzoxazol-2-yl)-4-[[3-[(2,3-dihydro-2-oxo-1H-imidazo[4,5-b]quinolin-7-yl)oxy]propyl]sulfonyl]piperazine dihydrochloride] |  | 1.4 | > 20000 | 
Cl.O=c1[nH]c2cc3cc(OCCCS(=O)(=O)N4CCN(c5nc6ccccc6s5)CC4)ccc3nc2[nH]1 [Compound 10i, 1-(Benzothiazol-2-yl)-4-[[3-[(2,3-dihydro-2-oxo-1H-imidazo[4,5-b]quinolin-7-yl)oxy]propyl]sulfonyl]piperazine hydrochloride] |  | 2.8 | ~1000 | 
Cl.Cl.O=c1[nH]c2cc3cc(OCCCS(=O)(=O)N4CCN(CCC5CCCCC5)CC4)ccc3nc2[nH]1 [Compound 10j, 1-[[3-[(2,3-Dihydro-2-oxo-1H-imidazo[4,5-b]quinolin-7-yl)oxy]propyl]sulfonyl]-4-(2-cyclohexylethyl) piperazine dihydrochloride] |  | 1.2 | < 5000 | 
O=c1[nH]c2cc3cc(OCCCS(=O)(=O)N4CCN(CCc5ccccc5)CC4)ccc3nc2[nH]1 [Compound 10k, 3-[[(2,3-Dihydro-2-oxo-1H-imidazo[4,5-b]quinolin-7-yl)oxy]propyl]sulfonyl]-4-(2-phenylethyl)piperazine dihydrochloride] |  | 0.6 | < 10000 | 
CCC(CC)CN1CCN(S(=O)(=O)CCCOc2ccc3nc4[nH]c(=O)[nH]c4cc3c2)CC1 [Compound 10l, 1-[[3-(2,3-Dihydro-2-oxo-1H-imidazo-[4,5-b]quinolin-7-yl)oxy]propyl]sulfonyl]-4-(2-ethylbut-1-yl)piperazine dihydrochloride] |  | 0.09 | > 10000 | 
Cl.Cl.O=c1[nH]c2cc3cc(OCCCS(=O)(=O)N4CCN(Cc5cccc(C(F)(F)F)c5)CC4)ccc3nc2[nH]1 [Compound 10m, 1-[[3-[(2,3-Dihydro-2-oxo-1H-imidazo[4,5-b]quinolin-7-yl)oxy]propyl]sulfonyl]-4-[(3-trifluoromethylphenyl)methyl]piperazine dihydrochloride] |  | 0.2 | ~2000 | 
